Series [1] deals with T1, PPARδ-RXRα heterodimer (Homo sapiens, UniProt Q03181).
T1 sequence (Q03181 1-441): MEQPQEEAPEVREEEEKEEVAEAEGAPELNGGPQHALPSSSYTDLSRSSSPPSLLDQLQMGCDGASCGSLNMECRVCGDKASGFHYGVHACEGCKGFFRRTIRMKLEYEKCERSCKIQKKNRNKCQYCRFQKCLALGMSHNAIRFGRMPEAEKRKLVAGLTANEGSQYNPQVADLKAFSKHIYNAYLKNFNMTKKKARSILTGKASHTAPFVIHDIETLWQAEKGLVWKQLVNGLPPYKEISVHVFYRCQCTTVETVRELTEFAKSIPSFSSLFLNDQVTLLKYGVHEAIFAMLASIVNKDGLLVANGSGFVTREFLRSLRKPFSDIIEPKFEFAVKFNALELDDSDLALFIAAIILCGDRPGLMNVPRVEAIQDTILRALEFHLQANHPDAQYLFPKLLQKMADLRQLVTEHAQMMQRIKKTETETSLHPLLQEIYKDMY
T1 sequence (P19793 1-462 partner): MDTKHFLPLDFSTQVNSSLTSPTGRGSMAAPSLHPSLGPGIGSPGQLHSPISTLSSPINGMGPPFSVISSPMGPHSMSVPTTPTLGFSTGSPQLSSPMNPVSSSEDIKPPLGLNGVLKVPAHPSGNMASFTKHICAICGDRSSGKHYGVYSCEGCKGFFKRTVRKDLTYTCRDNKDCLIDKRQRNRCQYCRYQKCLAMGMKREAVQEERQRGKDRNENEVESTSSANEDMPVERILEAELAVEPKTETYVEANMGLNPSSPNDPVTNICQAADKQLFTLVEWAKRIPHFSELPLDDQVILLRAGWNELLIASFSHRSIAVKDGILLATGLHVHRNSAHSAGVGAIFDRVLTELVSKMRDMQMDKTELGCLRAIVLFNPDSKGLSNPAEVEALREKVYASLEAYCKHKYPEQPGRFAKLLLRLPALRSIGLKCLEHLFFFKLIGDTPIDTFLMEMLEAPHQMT
The experiment in a line: PPARδ-RXRα heterodimer ligand activity (luciferase reporter, PPARδ:RXRα:4ERPP/CHO-K1 cells). The series is classed as cell-based. The arrangement: expressed in transfected cells. As to conditions: concentration for 50% of maximum fold induction of luciferase, 48 hrs. The method, then:
PPARδ-RXRα Heterodimer Ligand Activity
PPARδ:RXRα:4ERPP/CHO-K1 cells obtained in Reference Example 5a were cultured in HAM F12 medium (produced by NISSUI SEIYAKU) containing 10% fetal bovine serum (produced by Life Technologies, Inc., USA) and then seeded in a 96-well white plate (produced by Corning Costar Corporation, USA) at the density of 2×10^4 cells/well, and cultured in a CO2 gas incubator at 37° C. overnight.
After washing the 96 well white plate with PBS (Phosphate-buffered saline), 90 μl of HAM F12 medium containing 0.1% fatty acid-free bovine serum albumin (BSA) and 10 μl of test compound were added, and the cells were cultured in a CO2 gas incubator at 37° C. for 48 hrs. After removing the medium, 40 μl of PicaGene 7.5 (produced by Wako Pure Chemical Industries, Ltd.) was added. After stirring, the luciferase activity was determined using Lumistar (produced by BMG Labtechnologies GmbH, Germany).
The fold induction was calculated from the luciferase activity of each test compound when the luciferase activity in the non-treatment group is taken as 1. The values of the test compound concentration and the fold induction were analyzed using PRISM 2.01 (produced by GraphPad Software Inc. USA) to calculate the EC50 values, the effective concentration of a test compound for 50% of the maximum fold induction. […]

The compound `Cc1oc(-c2ccccc2)nc1COc1ccc(Sc2nc(-c3ccccc3)c(CCC(=O)O)o2)cc1` [Example 10, 3-[2-[4-(5-methyl-2-phenyl-4-oxazolylmethoxy)phenylthio]-4-phenyl-5-oxazolyl]propionic acid] had a melting point of 136 to 137 °C. In addition, a half-maximal response in series [1] (EC50) required 2100 nM.
